From patent US9663545B2, “Organometallic 2-cyano-2-aminobenzoate-propyl derivates and their use as anthelmintics” (UNIVERSITÄT ZÜRICH, priority 2013, dated 2017)

Assay: stability in sheep plasma (LC-MS)
Settings: 37° C., different time intervals, diazepam internal standard, new peak of the hydrolysed product arises
Experimental: Compound 8a and diazepam (internal standard) were incubated at 37° C. for different time intervals and their stability was checked using an LC-MS technique.

With “2-cyano-2-(4-((trifluoromethyl)thio)benzamido)propyl ferrocenoate [Compound 8a]” the “stability in sheep plasma (LC-MS peak of the compound)” value was “decreasing within 24 hours”.
